# Measured values reported in PMC3969223, “Characterization of WZ4003 and HTH-01-015 as selective inhibitors of the LKB1-tumour-suppressor-activated NUAK kinases” (Biochemical Journal, 2013).
# pIC50: −log10 of the molar value. Like-named read-outs stand apart in the source and are kept apart here.
# Columns and labels:
# NUAK1+/+ MEFs = assay: Wound-healing (migration) assay; type: cell-based, mouse; conditions: 10 μM
# Procedure: MEFs were split and an approximately equal number of cells were loaded into the left and right chambers of the IBIDI Self-Insertion Inserts (catalogue number 80209). Each insert was placed in one well of a 12-well plate and the cells were seeded with or without treatment with the inhibitors. For the comparison of the migration properties of different MEFs on the same video, a single insert was used and an equal number of MEFs were counted and loaded on either chamber of the same insert. To study the effect of inhibitors on cell migration, wound-healing assays on MEFs were also carried out on separate inserts with or without treatment with a 10 μM concentration of WZ4003 or HTH-01-015. Inhibitors were added to the cells 1 h before the start of the migration assay. The experiments were carried out in triplicate. After overnight incubation at 37°C and 5% CO2, the insert was removed and the migration of cells into the 500 μm gap between the chambers was observed. The wound-gap healing properties of the cells were observed over a period of 15–20 h under a Nikon Eclipse Ti microscope with images taken every 2 min by a Photometrics cascade II CCD (charge-coupled device) camera using Nikon NIS Elements software.
# MLK1 = MLK1 (Homo sapiens, UniProt P80192); assay: Kinase profiling; type: biochemical; conditions: 0.1 or 1 μM inhibitor; mean of triplicate
# Procedure: (§1) Kinase inhibitor specificity profiling assays were carried out at The International Centre for Protein Kinase Profiling (http://www.kinase-screen.mrc.ac.uk/) against a panel of 140 protein kinases as described previously. Results are presented as a percentage of kinase activity in DMSO control reactions. Protein kinases were assayed in vitro with 0.1 or 1 μM of the inhibitors and the results are presented as an average of triplicate reactions±S.D. or in the form of comparative histograms.
# BTK = BTK (Homo sapiens, UniProt Q06187); assay: Kinase profiling; type: biochemical; conditions: 0.1 or 1 μM inhibitor; mean of triplicate
# Procedure: as §1
# GSK3β = GSK3β (Homo sapiens, UniProt P49841); assay: Kinase profiling; type: biochemical; conditions: 0.1 or 1 μM inhibitor; mean of triplicate
# Procedure: as §1
# PAK2 = PAK2 (Homo sapiens, UniProt Q13177); assay: Kinase profiling; type: biochemical; conditions: 0.1 or 1 μM inhibitor; mean of triplicate
# Procedure: as §1
# TGFBR1 = TGFBR1 (Homo sapiens, UniProt P36897); assay: Kinase profiling; type: biochemical; conditions: 0.1 or 1 μM inhibitor; mean of triplicate
# Procedure: as §1
# NUAK1 = biological target: T1, NUAK1 (Homo sapiens, UniProt O60285); assay: GST–NUAK1 Sakamototide peptide kinase assay; type: biochemical; conditions: 200 μM Sakamototide, 100 μM [γ-32P]ATP; read-out: IC50 for NUAK1 (wild-type GST–NUAK1)
# T1 construct: made in house; host or cells: HEK-293 cells, transient transfection of pEBG2T construct
# T1 sequence (O60285 1-661): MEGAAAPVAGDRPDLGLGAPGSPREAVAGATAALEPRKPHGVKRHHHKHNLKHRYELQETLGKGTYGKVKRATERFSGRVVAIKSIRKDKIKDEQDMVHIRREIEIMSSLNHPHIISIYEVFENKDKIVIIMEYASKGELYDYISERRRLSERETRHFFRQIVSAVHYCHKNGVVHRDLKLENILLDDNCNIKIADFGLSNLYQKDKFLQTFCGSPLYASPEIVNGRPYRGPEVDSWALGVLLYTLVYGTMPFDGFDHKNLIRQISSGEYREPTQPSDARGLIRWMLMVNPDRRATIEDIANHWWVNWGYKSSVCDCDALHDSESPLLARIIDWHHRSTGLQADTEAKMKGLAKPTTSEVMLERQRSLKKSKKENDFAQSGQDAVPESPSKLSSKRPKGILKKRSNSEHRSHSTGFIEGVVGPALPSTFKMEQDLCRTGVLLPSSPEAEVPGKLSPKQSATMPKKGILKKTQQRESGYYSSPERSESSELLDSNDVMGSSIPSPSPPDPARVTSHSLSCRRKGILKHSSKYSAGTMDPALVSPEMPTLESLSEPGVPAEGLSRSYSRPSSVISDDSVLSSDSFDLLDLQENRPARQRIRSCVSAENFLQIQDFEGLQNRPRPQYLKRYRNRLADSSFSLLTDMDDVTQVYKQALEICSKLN
# Procedure: (§2) Active GST–NUAK1, GST–NUAK1[A195T] and GST–NUAK2 enzymes were purified using glutathione–Sepharose from HEK-293 cell lysates 36–48 h following the transient transfection of pEBG2T mammalian constructs expressing N-terminal GST-tagged NUAK1, NUAK1[A195T] or NUAK2. For peptide kinase assays, 96-well plates were used, and each reaction was performed in triplicate. Each reaction was set up in a total volume of 50 μl containing 100 ng of NUAK1 (wild-type or A195T mutant) or NUAK2 in 50 mM Tris/HCl (pH 7.5), 0.1 mM EGTA, 10 mM magnesium acetate, 200 μM Sakamototide, 0.1 mM [γ-^32P]ATP (450–500 c.p.m./pmol) and the indicated concentrations of inhibitors dissolved in DMSO. After incubation for 30 min at 30°C, reactions were terminated by adding 25 mM (final) EDTA to chelate the magnesium. Then, 40 μl of the reaction mix was spotted on to P81 paper and immersed in 50 mM orthophosphoric acid. Samples were washed three times in 50 mM orthophosphoric acid followed by a single acetone rinse and air drying. The incorporation of [γ-^32P]ATP into Sakamototide was quantified by Cerenkov counting. The values were expressed as a percentage of the DMSO control. IC50 curves were developed and IC50 values were calculated using GraphPad Prism software.
# NUAK2 = biological target: T2, NUAK2 (Homo sapiens, UniProt Q9H093); assay: GST–NUAK2 Sakamototide peptide kinase assay; type: biochemical; conditions: for pIC50: 200 μM Sakamototide, 100 μM [γ-32P]ATP; for Inhibition of NUAK2 (in words): results not shown
# T2 construct: made in house; host or cells: HEK-293 cells, transient transfection of pEBG2T construct
# T2 sequence (Q9H093 1-628): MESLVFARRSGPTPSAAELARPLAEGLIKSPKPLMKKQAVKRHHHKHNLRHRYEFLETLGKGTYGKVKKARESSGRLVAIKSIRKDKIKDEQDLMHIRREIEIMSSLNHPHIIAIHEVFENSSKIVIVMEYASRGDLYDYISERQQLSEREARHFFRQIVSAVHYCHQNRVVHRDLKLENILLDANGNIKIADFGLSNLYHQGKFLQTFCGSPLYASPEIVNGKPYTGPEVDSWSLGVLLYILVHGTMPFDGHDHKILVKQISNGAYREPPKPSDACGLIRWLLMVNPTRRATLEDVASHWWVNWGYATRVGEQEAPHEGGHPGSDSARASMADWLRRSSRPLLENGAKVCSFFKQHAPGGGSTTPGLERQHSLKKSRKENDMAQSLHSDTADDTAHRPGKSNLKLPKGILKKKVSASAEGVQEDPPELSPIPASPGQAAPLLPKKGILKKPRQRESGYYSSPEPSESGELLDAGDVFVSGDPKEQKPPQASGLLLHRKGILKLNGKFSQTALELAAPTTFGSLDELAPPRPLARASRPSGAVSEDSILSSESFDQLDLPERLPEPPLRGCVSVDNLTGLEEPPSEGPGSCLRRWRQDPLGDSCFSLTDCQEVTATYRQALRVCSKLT
# Procedure: as §2
# Sequence of MLK1 (P80192 whole entry): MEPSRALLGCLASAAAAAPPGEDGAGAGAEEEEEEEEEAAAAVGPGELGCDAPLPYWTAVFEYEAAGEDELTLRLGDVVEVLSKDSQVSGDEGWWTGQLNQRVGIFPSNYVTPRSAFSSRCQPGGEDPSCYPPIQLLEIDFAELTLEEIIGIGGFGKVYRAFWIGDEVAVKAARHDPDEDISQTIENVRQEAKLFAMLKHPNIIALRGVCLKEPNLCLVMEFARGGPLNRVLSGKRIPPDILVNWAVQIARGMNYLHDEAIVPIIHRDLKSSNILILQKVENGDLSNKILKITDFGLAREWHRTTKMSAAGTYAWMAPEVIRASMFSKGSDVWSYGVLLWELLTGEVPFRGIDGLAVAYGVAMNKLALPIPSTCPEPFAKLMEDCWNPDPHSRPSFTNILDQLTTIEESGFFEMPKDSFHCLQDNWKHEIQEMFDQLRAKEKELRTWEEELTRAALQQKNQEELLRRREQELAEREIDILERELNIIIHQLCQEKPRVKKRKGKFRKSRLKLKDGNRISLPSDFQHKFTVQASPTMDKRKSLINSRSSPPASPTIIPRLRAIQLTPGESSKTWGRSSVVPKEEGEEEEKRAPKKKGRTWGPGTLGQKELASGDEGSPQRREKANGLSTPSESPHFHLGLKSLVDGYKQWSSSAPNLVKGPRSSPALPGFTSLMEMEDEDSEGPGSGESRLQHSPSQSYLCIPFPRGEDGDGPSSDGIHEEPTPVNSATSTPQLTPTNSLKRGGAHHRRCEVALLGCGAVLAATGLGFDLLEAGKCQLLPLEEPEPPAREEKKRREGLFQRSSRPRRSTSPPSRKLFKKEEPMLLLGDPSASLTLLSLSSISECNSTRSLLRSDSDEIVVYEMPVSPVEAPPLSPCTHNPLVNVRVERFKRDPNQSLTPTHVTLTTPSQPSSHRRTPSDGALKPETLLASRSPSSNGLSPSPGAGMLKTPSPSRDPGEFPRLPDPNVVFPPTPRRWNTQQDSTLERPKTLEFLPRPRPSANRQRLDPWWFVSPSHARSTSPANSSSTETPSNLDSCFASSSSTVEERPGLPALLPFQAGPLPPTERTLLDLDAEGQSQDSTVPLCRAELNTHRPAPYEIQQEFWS
# Sequence of BTK (Q06187 whole entry): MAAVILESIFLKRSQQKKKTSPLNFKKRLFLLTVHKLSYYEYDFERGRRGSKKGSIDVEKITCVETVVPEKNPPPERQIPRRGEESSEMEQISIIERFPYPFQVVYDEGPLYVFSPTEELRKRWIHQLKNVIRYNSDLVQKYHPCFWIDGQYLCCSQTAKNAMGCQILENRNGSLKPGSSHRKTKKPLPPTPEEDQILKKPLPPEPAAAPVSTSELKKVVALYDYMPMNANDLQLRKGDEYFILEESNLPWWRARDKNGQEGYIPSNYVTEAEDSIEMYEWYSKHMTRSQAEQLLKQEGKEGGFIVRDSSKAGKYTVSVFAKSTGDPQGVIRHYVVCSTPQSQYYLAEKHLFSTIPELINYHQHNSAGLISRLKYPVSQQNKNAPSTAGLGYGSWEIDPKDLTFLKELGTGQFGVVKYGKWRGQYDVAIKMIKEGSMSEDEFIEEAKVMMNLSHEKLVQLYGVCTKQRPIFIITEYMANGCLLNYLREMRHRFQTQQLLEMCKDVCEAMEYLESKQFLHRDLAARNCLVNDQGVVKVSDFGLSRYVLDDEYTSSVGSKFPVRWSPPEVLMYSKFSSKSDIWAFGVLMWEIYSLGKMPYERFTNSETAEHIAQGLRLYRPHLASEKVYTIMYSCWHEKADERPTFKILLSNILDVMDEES
# Sequence of GSK3β (P49841 whole entry): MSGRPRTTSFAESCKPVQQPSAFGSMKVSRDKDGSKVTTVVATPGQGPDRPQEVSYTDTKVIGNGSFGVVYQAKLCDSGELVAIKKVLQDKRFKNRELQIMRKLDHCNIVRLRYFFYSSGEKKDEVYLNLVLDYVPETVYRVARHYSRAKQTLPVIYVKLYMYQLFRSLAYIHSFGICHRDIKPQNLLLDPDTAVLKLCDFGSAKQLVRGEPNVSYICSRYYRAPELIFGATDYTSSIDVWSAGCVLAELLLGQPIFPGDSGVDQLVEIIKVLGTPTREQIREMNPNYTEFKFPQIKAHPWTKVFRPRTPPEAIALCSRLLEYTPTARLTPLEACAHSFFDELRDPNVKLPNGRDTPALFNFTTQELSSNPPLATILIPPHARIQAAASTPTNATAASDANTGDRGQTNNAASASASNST
# Sequence of TGFBR1 (P36897 34-503): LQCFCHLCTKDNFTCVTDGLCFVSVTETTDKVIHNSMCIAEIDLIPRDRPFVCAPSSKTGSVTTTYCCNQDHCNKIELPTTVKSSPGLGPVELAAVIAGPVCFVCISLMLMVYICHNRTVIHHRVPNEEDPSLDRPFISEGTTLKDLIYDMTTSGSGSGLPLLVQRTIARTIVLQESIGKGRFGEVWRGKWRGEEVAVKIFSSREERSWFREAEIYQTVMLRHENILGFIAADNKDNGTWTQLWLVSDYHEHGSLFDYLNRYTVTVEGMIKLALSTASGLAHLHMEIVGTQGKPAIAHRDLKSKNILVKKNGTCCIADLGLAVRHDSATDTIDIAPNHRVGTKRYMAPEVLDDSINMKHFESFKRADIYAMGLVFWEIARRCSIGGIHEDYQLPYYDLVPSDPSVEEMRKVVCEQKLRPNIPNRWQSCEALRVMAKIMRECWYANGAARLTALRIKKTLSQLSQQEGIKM
# Sequence of PAK2 (Q13177 whole entry): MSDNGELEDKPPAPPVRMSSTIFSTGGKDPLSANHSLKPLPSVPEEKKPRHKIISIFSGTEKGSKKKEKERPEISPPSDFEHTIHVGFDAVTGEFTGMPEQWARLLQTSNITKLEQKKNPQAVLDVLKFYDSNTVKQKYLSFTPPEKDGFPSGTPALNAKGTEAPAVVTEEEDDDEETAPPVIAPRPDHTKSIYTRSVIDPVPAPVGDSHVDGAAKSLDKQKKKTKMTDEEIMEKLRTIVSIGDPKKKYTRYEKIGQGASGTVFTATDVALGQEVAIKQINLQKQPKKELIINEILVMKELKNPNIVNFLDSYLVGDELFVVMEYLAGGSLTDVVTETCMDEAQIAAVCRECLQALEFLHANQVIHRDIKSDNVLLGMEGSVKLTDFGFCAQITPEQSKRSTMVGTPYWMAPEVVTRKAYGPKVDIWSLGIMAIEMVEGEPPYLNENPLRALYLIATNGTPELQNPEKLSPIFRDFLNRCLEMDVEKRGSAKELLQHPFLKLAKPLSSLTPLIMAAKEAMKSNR
Inhibition of NUAK2 (in words) (NUAK2),SMILES,Cell migration in wound-healing assay (in words) (NUAK1+/+ MEFs),"MLK1 activity, percentage of DMSO control (MLK1) [percentage]","BTK activity, percentage of DMSO control (BTK) [percentage]","GSK3β activity, percentage of DMSO control (GSK3β) [percentage]","PAK2 activity, percentage of DMSO control (PAK2) [percentage]","TGFBR1 activity, percentage of DMSO control (TGFBR1) [percentage]",pIC50 (NUAK1),"pIC50 (NUAK2; bound given in text, read-out: IC50 for NUAK2)",Higher potency for NUAK1 than NUAK2 (NUAK2; NUAK1 versus NUAK2) [fold],pIC50 (NUAK2; read-out: IC50 for NUAK2 (wild-type GST–NUAK2))
,Cc1nc(Nc2cnn(C3CCNCC3)c2)nc2c1N(C)C(=O)c1cc3ccccc3cc1N2C [HTH-01-015],markedly reduced cell migration,102,109,119,125,102,7.00,< 5.00,> 100,
,CCC(=O)Nc1cccc(Oc2nc(Nc3ccc(N4CCN(C)CC4)cc3OC)ncc2Cl)c1 [WZ4003],markedly reduced cell migration,69,114,88,92,102,7.70,,,7.00
Neither compound significantly inhibited,CN1C(=O)c2ccccc2N(C)c2nc(Nc3cnn(C4CCNCC4)c3)ncc21 [XMD-17-51],,,,,,,8.82,,,
Neither compound significantly inhibited,CN1C(=O)c2cc3ccccc3cc2N(C)c2nc(Nc3cnn(C4CCNCC4)c3)ncc21 [XMD-18-42],,,,,,,7.52,,,
